Results published in paper PMC4275348 (Molecular microbiology, 2014).
Positions count from the first letter of the chain named. Entries after “also recorded” stand apart in the source; their conditions may differ.

Tests used:
LuxN = LuxN (Vibrio campbellii, UniProt A7MRY4); assay type: cell-based, Vibrio harveyi; conditions: IC50 values measured at various concentrations of AI-1
LuxN^L166H/N176D = target: T1, LuxN^L166H/N176D (Vibrio campbellii, UniProt A7MRY4, L166H/N176D); assay: Bioluminescence of V. harveyi XK006 carrying luxN L166H/N176D; assay type: cell-based, Vibrio harveyi; conditions: 10 μM C8 HSL
T1 sequence (A7MRY4 1-849 L166H/N176D): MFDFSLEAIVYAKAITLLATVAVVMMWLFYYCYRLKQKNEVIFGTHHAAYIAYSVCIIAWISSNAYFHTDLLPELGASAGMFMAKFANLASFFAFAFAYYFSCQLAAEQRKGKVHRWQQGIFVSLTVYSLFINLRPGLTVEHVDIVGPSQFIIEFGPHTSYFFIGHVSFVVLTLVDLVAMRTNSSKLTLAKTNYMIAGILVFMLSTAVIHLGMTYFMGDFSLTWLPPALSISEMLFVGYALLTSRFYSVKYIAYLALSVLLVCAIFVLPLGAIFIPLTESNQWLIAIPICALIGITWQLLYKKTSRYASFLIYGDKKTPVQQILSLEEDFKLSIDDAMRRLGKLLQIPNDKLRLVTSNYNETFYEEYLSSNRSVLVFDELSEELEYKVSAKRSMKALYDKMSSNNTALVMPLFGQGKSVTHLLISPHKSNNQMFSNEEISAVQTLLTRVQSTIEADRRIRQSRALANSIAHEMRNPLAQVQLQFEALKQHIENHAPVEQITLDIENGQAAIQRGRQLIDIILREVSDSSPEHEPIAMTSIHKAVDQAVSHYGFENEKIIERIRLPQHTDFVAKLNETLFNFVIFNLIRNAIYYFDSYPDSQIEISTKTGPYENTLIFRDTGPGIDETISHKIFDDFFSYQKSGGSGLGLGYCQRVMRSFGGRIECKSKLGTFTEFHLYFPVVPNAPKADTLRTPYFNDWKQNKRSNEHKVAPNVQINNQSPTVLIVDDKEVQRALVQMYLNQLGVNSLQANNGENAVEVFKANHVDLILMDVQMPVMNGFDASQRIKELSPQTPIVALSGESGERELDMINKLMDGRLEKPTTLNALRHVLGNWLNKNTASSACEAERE

LuxN^G147D/Y194H = target: T2, LuxN^G147D/Y194H (Vibrio campbellii, UniProt A7MRY4, G147D/Y194H); assay: Bioluminescence of V. harveyi XK006 carrying luxN G147D/Y194H; assay type: cell-based, Vibrio harveyi; conditions: 10 μM C8 HSL
T2 sequence (A7MRY4 1-849 G147D/Y194H): T1 sequence (A7MRY4 1-849 L166H/N176D) with G147D, H166L, D176N, Y194H

WT AinR = assay: Bioluminescence of V. harveyi XK006 harboring WT V. fischeri ainR; assay type: cell-based, Vibrio fischeri
AinR^Q204H = assay: Bioluminescence of V. harveyi XK006 harboring ainR Q204H; assay type: cell-based, Vibrio fischeri
[1] = test system: AinR Ser^203 replaced by Ile; assay: Bioluminescence of V. harveyi XK006 harboring ainR S203I; assay type: cell-based, Vibrio fischeri
LuxN^L166A = LuxN^L166A (Vibrio campbellii, UniProt A7MRY4, L166A)
luxN^L166A/H210N = luxN^L166A/H210N (Vibrio campbellii, UniProt A7MRY4, H210N/L166A); conditions: AHLs added at 1 μM
Kin^off LuxN mutants = assay: Bioluminescence of V. harveyi XK006 harboring Kin^off biased luxN alleles; assay type: cell-based, Vibrio harveyi; conditions: 10 μM 3O-C12 HSL
WT LuxN = WT LuxN (Vibrio campbellii, UniProt A7MRY4); conditions: XK847

| Compound | mechanism of antagonism (LuxN) | higher light compared to DMSO or 20 nM AI-1 (LuxN^L166H/N176D) | induction of light production (LuxN^G147D/Y194H) | light production (WT AinR; AHLs added at 1 μM) | sensitivity of the reporter (WT AinR; dose response (Table S3)) | detection (light production) (AinR^Q204H) | detection (light production) [1] | detection (light production) (LuxN^L166A) | light production (luxN^L166A/H210N) | inhibition of light production (Kin^off LuxN mutants) | light production phenotype (WT LuxN) |
| --- | --- | --- | --- | --- | --- | --- | --- | --- | --- | --- | --- |
| CCCCCCCC(=O)N[C@H]1CCOC1=O [C8 HSL] | behaved similarly to 3O-C12 HSL | 3 fold | 10 fold | light production was induced | most sensitive | retained the capability to detect | most potent agonist | only modest detection | produced maximal light | – | – |
| CCCCCCCCCC(=O)CC(=O)N[C@H]1CCOC1=O [3O-C12 HSL] | competitive | – | – | – | – | – | – | – | – | inhibited light production to basal levels; also recorded: reduced light production to basal levels | completely dark phenotype |
